Data taken from ChEMBL document CHEMBL5528082 (J Med Chem, 2024).
Converted amounts (≈) assume the structure as drawn.

Assays:
Staphylococcus aureus [1] = test: Antibacterial activity against Staphylococcus aureus ATCC 25923 incubated for 24 hrs by CLSI based broth microdilution assay; assay type: functional
Staphylococcus aureus [2] = test: Antibacterial activity against Staphylococcus aureus USA 300 incubated for 24 hrs by CLSI based broth microdilution assay; assay type: functional
Staphylococcus aureus [3] = test: Antibacterial activity against TMP-resistant Staphylococcus aureus BHKS 227 incubated for 24 hrs by CLSI based broth microdilution assay; assay type: functional
Staphylococcus aureus [4] = test: Antibacterial activity against TMP-resistant Staphylococcus aureus BHKS 721 incubated for 24 hrs by CLSI based broth microdilution assay; assay type: functional
Staphylococcus aureus [5] = test: Antibacterial activity against TMP-resistant Staphylococcus aureus BHKS 723 incubated for 24 hrs by CLSI based broth microdilution assay; assay type: functional
[6] = Cytotoxicity against HEK293 cells assessed as inhibition rate of cell growth at 100 uM incubated for 24 hrs by CCK8 assay relative to control; assay type: toxicity, cell-based; conditions: human
[7] = Cytotoxicity against human NCM460 cells assessed as inhibition rate of cell growth at 100 uM incubated for 24 hrs by CCK8 assay relative to control; assay type: toxicity, cell-based
[8] = system: Dihydrofolate reductase (Staphylococcus aureus); conditions: dose 100.0 nM

Row | Compound | MIC (Staphylococcus aureus [1]) [µg/mL] | MIC (Staphylococcus aureus [2]) [µg/mL] | MIC (Staphylococcus aureus [3]) [µg/mL] | MIC (Staphylococcus aureus [4]) [µg/mL] | MIC (Staphylococcus aureus [5]) [µg/mL] | inhibition at 24 h, 100 µM [6] [%] | inhibition at 24 h, 100 µM [7] [%] | inhibition [8] [%]
1 | COc1cc(C(C)C)c(Oc2cnc(N)nc2N)cc1C | 1 (≈ 3.47 µM) | 1 (≈ 3.47 µM) | 4 (≈ 13.9 µM) | 16 (≈ 55.5 µM) | 32 (≈ 111 µM) | 15.6 | 57.3 | 65.9
2 | CCCCCCOc1cc(C(C)C)c(Oc2cnc(N)nc2N)cc1I | 1 (≈ 2.13 µM) | 1 (≈ 2.13 µM) | 8 (≈ 17 µM) | 8 (≈ 17 µM) | 4 (≈ 8.5 µM) | 41.5 | 66 | 42.9
3 | CC(C)c1cc(O)c(I)cc1Oc1cnc(N)nc1N | 0.125 (≈ 0.324 µM) | 0.125 (≈ 0.324 µM) | 0.5 (≈ 1.29 µM) | 4 (≈ 10.4 µM) | 4 (≈ 10.4 µM) | 30.1 | 3 | 61.7
4 | CC(C)c1cc(OCCc2ccccc2)c(I)cc1Oc1cnc(N)nc1N | 0.125 (≈ 0.255 µM) | 0.125 (≈ 0.255 µM) | 2 (≈ 4.08 µM) | 4 (≈ 8.16 µM) | 4 (≈ 8.16 µM) | 62 | 33.7 | 76.4
5 | CCC(C)c1cc(OC)c(I)cc1Oc1cnc(N)nc1N (stereo not given) | 0.125 (≈ 0.302 µM) | 0.125 (≈ 0.302 µM) | 1 (≈ 2.41 µM) | 8 (≈ 19.3 µM) | 16 (≈ 38.6 µM) | 28.5 | 62.7 | 56.3
6 | COc1cc(Cc2cnc(N)nc2N)cc(OC)c1OC [TRIMETHOPRIM] | 0.5 (≈ 1.72 µM) | 0.5 (≈ 1.72 µM) | 32 (≈ 110 µM) | 16 (≈ 55.1 µM) | 16 (≈ 55.1 µM) | 2.93 | 8.06 | 
7 | COc1cc(C(C)C)c(Oc2cnc(N)nc2N)cc1-c1ccc2c(c1)OCCO2 | 0.5 (≈ 1.22 µM) | 0.25 (≈ 0.612 µM) | 4 (≈ 9.79 µM) | 16 (≈ 39.2 µM) | 16 (≈ 39.2 µM) | 19.6 | 64.7 | 27.2
8 | CCCC(C)Oc1cc(C(C)C)c(Oc2cnc(N)nc2N)cc1I (stereo not given) | 0.063 (≈ 0.138 µM) | 0.063 (≈ 0.138 µM) | 2 (≈ 4.38 µM) | 4 (≈ 8.77 µM) | 4 (≈ 8.77 µM) | 55.6 | 11.5 | 31.7
9 | CC(C)c1ccc(-c2cc(Oc3cnc(N)nc3N)c(C(C)C)cc2OCC2CC2)cc1 | 1 (≈ 2.31 µM) | 1 (≈ 2.31 µM) | 4 (≈ 9.25 µM) | 2 (≈ 4.62 µM) | 4 (≈ 9.25 µM) | 19.3 | 30.2 | 75.4
10 | COc1cc(C(C)C)c(Oc2cnc(N)nc2N)cc1-c1ccccc1Cl | 4 (≈ 10.4 µM) | 4 (≈ 10.4 µM) | 16 (≈ 41.6 µM) | 32 (≈ 83.1 µM) | 32 (≈ 83.1 µM) | 37.8 | 29 | 74.3
11 | COc1cc(C(C)C)c(Oc2cnc(N)nc2N)cc1-c1ccc(O)cc1 | 0.125 (≈ 0.341 µM) | 0.063 (≈ 0.172 µM) | 0.5 (≈ 1.36 µM) | 1 (≈ 2.73 µM) | 8 (≈ 21.8 µM) | 22.9 | 53.1 | 72.3
12 | CCCCOc1cc(C(C)C)c(Oc2cnc(N)nc2N)cc1-c1ccc(C(F)(F)F)cc1 | 2 (≈ 4.34 µM) | 4 (≈ 8.69 µM) | 4 (≈ 8.69 µM) | 4 (≈ 8.69 µM) | 4 (≈ 8.69 µM) | 40.2 | 42.3 | 90.9
13 | COc1cc(C(C)C)c(Oc2cnc(N)nc2N)cc1-c1cc(C(F)(F)F)cc(C(F)(F)F)c1 | 4 (≈ 8.22 µM) | 8 (≈ 16.4 µM) | 8 (≈ 16.4 µM) | 8 (≈ 16.4 µM) | 8 (≈ 16.4 µM) | 38.6 | 64.2 | > 100
14 | CCc1cc(Oc2cnc(N)nc2N)c(C(C)CC)cc1OC (stereo not given) | 1 (≈ 3.16 µM) | 1 (≈ 3.16 µM) | 4 (≈ 12.6 µM) | 16 (≈ 50.6 µM) | 32 (≈ 101 µM) | 23.2 | 48.4 | 4.32
15 | CC(C)CCOc1cc(C(C)C)c(Oc2cnc(N)nc2N)cc1I | 0.125 (≈ 0.274 µM) | 0.125 (≈ 0.274 µM) | 2 (≈ 4.38 µM) | 8 (≈ 17.5 µM) | 8 (≈ 17.5 µM) | 64 | 35.6 | 79.6
16 | CCC(C)Oc1cc(C(C)C)c(Oc2cnc(N)nc2N)cc1I (stereo not given) | 0.016 (≈ 0.0362 µM) | 0.016 (≈ 0.0362 µM) | 1 (≈ 2.26 µM) | 4 (≈ 9.04 µM) | 4 (≈ 9.04 µM) | 44.6 | 70.7 | 50.8
17 | COc1ccc(-c2cc(Oc3cnc(N)nc3N)c(C(C)C)cc2OC)cc1 | 0.25 (≈ 0.657 µM) | 0.125 (≈ 0.329 µM) | 1 (≈ 2.63 µM) | 16 (≈ 42.1 µM) | 16 (≈ 42.1 µM) | 19.9 | 69.5 | 19.9
